Reference: patent publication US6245790A, “Oxazole compounds useful as PGE2 agonists and antagonists” (Fujisawa Pharmaceutical Co., Ltd., priority 1997, dated 2001)

Key:
[1] = target: T1, prostanoide receptor subtype (human EP4) (Homo sapiens, UniProt P35408); experiment: Binding assay using expression of prostanoide receptor subtype ([3H]-PGE2 competition, COS-7 membrane fraction); details: compound at 10 μM, 1 hour at 30° C., COS-7 cells transfected human EP4
T1 construct: expressed in transfected cells; host or cells: COS-7
T1 sequence (P35408 whole entry): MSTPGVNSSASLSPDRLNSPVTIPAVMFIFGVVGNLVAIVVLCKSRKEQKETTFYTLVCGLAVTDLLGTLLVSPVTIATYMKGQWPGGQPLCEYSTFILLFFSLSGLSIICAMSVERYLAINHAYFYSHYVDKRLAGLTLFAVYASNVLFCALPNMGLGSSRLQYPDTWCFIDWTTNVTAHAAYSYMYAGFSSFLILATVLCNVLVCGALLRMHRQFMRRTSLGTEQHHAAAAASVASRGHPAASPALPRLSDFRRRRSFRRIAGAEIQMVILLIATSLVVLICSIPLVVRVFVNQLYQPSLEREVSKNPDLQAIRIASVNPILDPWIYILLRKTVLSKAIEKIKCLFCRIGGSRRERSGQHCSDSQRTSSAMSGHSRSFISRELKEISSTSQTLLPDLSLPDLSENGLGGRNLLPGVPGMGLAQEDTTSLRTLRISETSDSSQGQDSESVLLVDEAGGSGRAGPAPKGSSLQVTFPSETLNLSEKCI
Description: Binding Assay Using Expression of Prostanoide Receptor Subtype
The membrane fraction was prepared using COS-7 cells transfected prostanoide receptor subtype (human EP4).
The Standard assay mixture contained membrane fraction, [^3 H]-PGE2 in final volume of 0.25 ml was incubated for 1 hour at 30° C. The reaction was terminated by that the mixture was rapidly filtered through a glass filter (GF/B). Then the filter was washed by 4 ml of ice-cold buffer at two times. The radioactivity associated with the filter was measured by liquid scintillation counting.
In the experiment for competition of specific [^3 H]-PGE2 was added at a concentration of 10 μM. The following buffer was used in all reactions.
Buffer: 20 mM Mes (pH 6.0), 1 mM EDTA, 10 mM MgCl2

Mouse B Lymphocytes = experiment: Effect on PGE2-induced IgE and IgG1 secretion in mouse B lymphocytes (LPS and IL-4, ELISA); format: cell-based, mouse (BDF1); details: + 10^-5 M Test Compound, LPS and IL-4, 6 days, Mean ± S.E.M. (n = 4)
Description: Effect on IgE and IgG1 Secretion in Mouse B Lymphocytes
Inhibitory properties of a test compound against PGE2 -induced IgE and IgG1 secretion in isolated resting B lymphocytes of mice were tested. Resting mouse B lymphocytes were isolated from spleens of 12-week-old BDF1 male mice (Clea Japan Inc.) using adherent cell depletion, negative selection by FITC-anti-Thy 1.2 (30H12), FITC-anti-CD4 (GK1.5), FITC-anti-CD11b (M1/70) and FITC-anti-CD8a (5.-6.7) (Pharmingen) with anti-FITC Ab coating magnetic beads (PerSpective Daiagnostics) and Percoll gradient (Pharmacia). Resting B lymphocytes were cultured in flat-bottomed96-well microtiter plates (Becton Dickinson) at 1×10^6 cells per ml and preincubated with a test compound or DMSO control for 30 minutes. Then PGE2 were added at 10^-6 M. After 1 hour, LPS and IL-4 were added and incubated at 37° C. in a humidified atmosphere with 5% CO2. After 6 days, supernatants were collected and IgE and IgG1 were measured by the ELISA.

inhibition at 10 µM [1] | SMILES | IgG1 secretion (Mouse B Lymphocytes; + 10^-6 M PGE2, # p < 0.01 v.s. Control (-PGE2)) | IgE secretion (Mouse B Lymphocytes; + 10^-6 M PGE2, * p < 0.01 v.s. Control (+10^-6 M PGE2)) | IgE secretion (Mouse B Lymphocytes; -PGE2) | IgG1 secretion (Mouse B Lymphocytes; -PGE2)
> 80% | COc1cccc(C[C@@H]2CCC=C2c2nc(-c3ccccc3)c(-c3ccccc3)o2)c1 [Test Compound (1), (S)-2-(4,5-Diphenyloxazol-2-yl)-1-(3-methoxybenzyl)-2-cyclopentene] | – | – | – | –
> 80% | O=C(O)c1ccc(C[C@@H]2CCCC=C2c2nc(-c3ccccc3)c(-c3ccccc3)o2)cc1 [Test Compound (2), (S)-4-{[2-(4,5-Diphenyloxazol-2-yl)-2-cyclohexen-1-yl]-methyl}benzoic acid] | – | – | – | –
> 80% | NC(=O)COc1cccc(C[C@@H]2CCCC=C2c2nc(-c3ccccc3)c(-c3ccccc3)o2)c1 [Test Compound (3), (S)-{3-{[2-(4,5-Diphenyloxazol-2-yl)-2-cyclohexen-1-yl]-methyl}phenoxy}actamide] | – | – | – | –
– | O=C([O-])c1cccc(C[C@@H]2CCCC=C2c2nc(-c3ccccc3)c(-c3ccccc3)o2)c1.[Na+] [Test Compound, Sodium (S)-3-{[2-(4,5-diphenyloxazol-2-yl)-2-cyclohexen-1-yl]methyl}benzoate] | 1607.6 ± 150.9 ng/mL | 37.0 ± 7.0 ng/mL | 21.2 ± 5.7 ng/mL | 1053.0 ± 176.2 ng/mL
